Experimental data from US12227501B2, “3-amino-2-[2-(acylamino)pyridin-4-yl]-1,5,6,7-tetrahydro-4h-pyrrolo[3,2-c]pyridin-4-one as CSNK1 inhibitors” (Bayer Aktiengesellschaft, priority 2019, dated 2025).
Where two headings read alike, the source gives them in different places.

Legend:
Type in all cases: biochemical
human CSNK1A1 [1] = target: T1, human CSNK1A1 (Homo sapiens (Human), UniProt P48729); assay: CSNK1A1 Assay 2 (ADP-Glo, 1 μM ATP); conditions: substrate biotin-Ahx-KRRRAL-pS-VASLPGL, read-out: CSNK1A1 Assay 2 IC50 [mol/l] (median)
T1 sequence (P48729 whole entry, the tested form may be a part): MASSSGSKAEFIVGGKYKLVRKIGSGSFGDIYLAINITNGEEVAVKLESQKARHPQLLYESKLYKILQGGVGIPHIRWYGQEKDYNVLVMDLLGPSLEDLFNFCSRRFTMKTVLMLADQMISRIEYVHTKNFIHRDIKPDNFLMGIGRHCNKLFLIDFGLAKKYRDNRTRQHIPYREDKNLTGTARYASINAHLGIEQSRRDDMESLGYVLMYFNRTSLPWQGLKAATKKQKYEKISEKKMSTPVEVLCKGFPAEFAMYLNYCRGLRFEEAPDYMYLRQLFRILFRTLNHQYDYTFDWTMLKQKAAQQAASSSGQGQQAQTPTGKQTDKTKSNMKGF
Summary of the method: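 Full-length human CSNK1A1 as an N-terminal GST fusion (baculovirus/insect cells) with biotinylated peptide substrate biotin-Ahx-KRRRAL-pS-VASLPGL and 1 μM ATP, in HEPES pH 7.5 buffer. Compounds were pre-incubated with enzyme (~0.0375 ng/μL) for 15 min at 22 °C. Generated ADP was read by ADP-Glo luminescence as the activity measure.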

human CSNK1A1 [2] = target: T1, human CSNK1A1; assay: CSNK1A1 High ATP Assay (ADP-Glo, 1 mM ATP); conditions: read-out: CSNK1A1 high ATP assay IC50 [mol/l] (median)
Summary of the method: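 GST-tagged full-length human CSNK1A1 from baculovirus-infected insect cells (typically about 0.4 ng/μL), pre-incubated with compound 15 min at 22 °C. Reaction with biotinylated peptide biotin-Ahx-KRRRAL-pS-VASLPGL at 1 mM ATP. ADP formed read by ADP-Glo luminescence.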

human CSNK1D = human CSNK1D (Homo sapiens (Human), UniProt P48730); assay: CSNK1D Assay (ADP-Glo, 1 μM ATP); conditions: read-out: CSNK1D IC50 [mol/l] (median)
Sequence of human CSNK1D (P48730 whole entry): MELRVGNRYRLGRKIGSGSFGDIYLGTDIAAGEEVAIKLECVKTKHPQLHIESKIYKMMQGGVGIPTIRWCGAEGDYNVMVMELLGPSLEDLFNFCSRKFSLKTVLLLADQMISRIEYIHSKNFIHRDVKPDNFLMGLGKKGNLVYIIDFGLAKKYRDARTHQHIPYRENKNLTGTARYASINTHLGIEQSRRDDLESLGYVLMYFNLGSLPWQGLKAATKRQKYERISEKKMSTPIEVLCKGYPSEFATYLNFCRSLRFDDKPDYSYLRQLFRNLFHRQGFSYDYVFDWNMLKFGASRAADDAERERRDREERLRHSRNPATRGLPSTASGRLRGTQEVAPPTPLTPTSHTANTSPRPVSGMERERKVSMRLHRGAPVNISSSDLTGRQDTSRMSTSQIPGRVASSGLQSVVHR
Summary of the method: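 GST-tagged full-length human CSNK1D from baculovirus-infected insect cells, typically ~0.5 ng/μL, with biotinylated peptide substrate and 1 μM ATP in HEPES pH 7.5 buffer. Compound is preincubated with enzyme 15 min at 22 °C. ADP formed is quantified by ADP-Glo luminescence.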

[3] = target: wild-type Epidermal Growth Factor Receptor (EGFR) (Homo sapiens (Human), UniProt P00533); assay: WT-EGFR Kinase Assay (TR-FRET, 2 mM ATP)
Sequence of wild-type Epidermal Growth Factor Receptor (EGFR) (P00533 669-1210): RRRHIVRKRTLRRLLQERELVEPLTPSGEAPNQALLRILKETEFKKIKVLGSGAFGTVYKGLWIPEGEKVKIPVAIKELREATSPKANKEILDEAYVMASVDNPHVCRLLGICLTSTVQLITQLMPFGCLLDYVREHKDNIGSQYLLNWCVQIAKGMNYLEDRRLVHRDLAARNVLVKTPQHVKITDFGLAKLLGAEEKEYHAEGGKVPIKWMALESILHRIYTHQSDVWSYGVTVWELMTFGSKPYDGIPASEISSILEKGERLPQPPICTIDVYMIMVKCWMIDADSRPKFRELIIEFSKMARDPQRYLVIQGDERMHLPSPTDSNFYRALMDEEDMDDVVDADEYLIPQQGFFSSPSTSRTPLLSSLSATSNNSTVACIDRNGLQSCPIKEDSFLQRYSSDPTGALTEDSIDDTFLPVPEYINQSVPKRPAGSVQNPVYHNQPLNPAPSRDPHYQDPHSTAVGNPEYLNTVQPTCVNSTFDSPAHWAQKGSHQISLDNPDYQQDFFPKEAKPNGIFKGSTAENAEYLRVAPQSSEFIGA

[4] = EGFR Wildtyp- 2 mM ATP IC50 [mol/l] (median)
[5] = read-out: EGFR Wildtyp- 2 mM ATP IC50 [mol/l] (median)

Row | Structure (SMILES) | IC50 (human CSNK1A1 [1]) | IC50 (human CSNK1A1 [2]) | IC50 (human CSNK1D) | IC50 [3, 4] | IC50 [3, 5]
1 | CC1Cc2[nH]c(-c3ccnc(NC(=O)Cc4ccncc4)c3)c(Nc3ccccc3)c2C(=O)N1C (single isomer, unassigned; (+)) [Example 98, (+)-N-{4-[(6R*)-3-anilino-5,6-dimethyl-4-oxo-4,5,6,7-tetrahydro-1H-pyrrolo[3,2-c]pyridin-2-yl]pyridin-2-yl}-2-(pyridin-4-yl)acetamide] | 4.16 nM | 149 nM | 6.13 nM | 4340 nM | –
2 | CC1Cc2[nH]c(-c3ccnc(NC(=O)Cc4ccc(F)cc4)c3)c(Nc3ccccc3F)c2C(=O)N1C (single isomer, unassigned; (+)) [Example 101, (+)-N-{4-[3-(2-fluoroanilino)-5,6-dimethyl-4-oxo-4,5,6,7-tetrahydro-1H-pyrrolo[3,2-c]pyridin-2-yl]pyridin-2-yl}-2-(4-fluorophenyl)acetamide] | 3.74 nM | 258 nM | 7.42 nM | > 20000 nM | –
3 | CC1Cc2[nH]c(-c3ccnc(NC(=O)C(CC(F)F)c4ccc(F)cc4)c3)c(Nc3ccccc3F)c2C(=O)N1C (single isomer, unassigned; (+)) [Example 103, (+)-(2RS)-4,4-difluoro-N-{4-[(6R*)-3-(2-fluoroanilino)-5,6-dimethyl-4-oxo-4,5,6,7-tetrahydro-1H-pyrrolo[3,2-c]pyridin-2-yl]pyridin-2-yl}-2-(4-fluorophenyl)butanamide] | 12.8 nM | 268 nM | 17.3 nM | > 20000 nM | –
4 | CC1Cc2[nH]c(-c3ccnc(NC(=O)C(CC(F)F)c4ccc(F)cc4)c3)c(Nc3ccccc3F)c2C(=O)N1C (single isomer, unassigned; (+)) [Example 105, (+)-4,4-difluoro-N-{4-[3-(2-fluoroanilino)-5,6-dimethyl-4-oxo-4,5,6,7-tetrahydro-1H-pyrrolo[3,2-c]pyridin-2-yl]pyridin-2-yl}-2-(4-fluorophenyl)butanamide] | 4.06 nM | 94.5 nM | 5.45 nM | – | > 20000 nM
5 | CC1Cc2[nH]c(-c3ccnc(NC(=O)C(CC(F)F)c4ccc(F)cc4)c3)c(Nc3ccccc3F)c2C(=O)N1C (single isomer, unassigned; (+)) [Example 108, (+)-4,4-difluoro-N-{4-[3-(2-fluoroanilino)-5,6-dimethyl-4-oxo-4,5,6,7-tetrahydro-1H-pyrrolo[3,2-c]pyridin-2-yl]pyridin-2-yl}-2-(4-fluorophenyl)butanamide] | 3.27 nM | 8.33 nM | 4.62 nM | – | > 20000 nM
6 | CC1(C)Cc2[nH]c(-c3ccnc(NC(=O)C(CC(F)F)c4ccc(F)cc4)c3)c(Nc3cccc(F)c3Cl)c2C(=O)N1 (single isomer, unassigned; (+)) [Example 111, (+)-N-{4-[3-(2-chloro-3-fluoroanilino)-6,6-dimethyl-4-oxo-4,5,6,7-tetrahydro-1H-pyrrolo[3,2-c]pyridin-2-yl]pyridin-2-yl}-4,4-difluoro-2-(4-fluorophenyl)butanamide] | 10.9 nM | 135 nM | 10.2 nM | 1140 nM | –
7 | CC(C(=O)Nc1cc(-c2[nH]c3c(c2Nc2ccccc2F)C(=O)N(C)CC3)ccn1)c1ccc(F)cc1 (single isomer, unassigned; (-)) [Example 41, (−)-N-{4-[3-(2-fluoroanilino)-5-methyl-4-oxo-4,5,6,7-tetrahydro-1H-pyrrolo[3,2-c]pyridin-2-yl]pyridin-2-yl}-2-(4-fluorophenyl)propanamide] | 22.6 nM | 3530 nM | 31.2 nM | > 20000 nM | –
8 | O=C1NC2(CCC2)Cc2[nH]c(-c3ccnc(NC(=O)C(CC(F)F)c4ccc(F)cc4)c3)c(Nc3ccccc3)c21 (single isomer, unassigned; (-)) [Example 56, (−)-N-[4-(3′-anilino-4′-oxo-1′,4′,5′,7′-tetrahydrospiro[cyclobutane-1,6′-pyrrolo[3,2-c]pyridin]-2′-yl)pyridin-2-yl]-4,4-difluoro-2-(4-fluorophenyl)butanamide] | 19.2 nM | 1080 nM | 27.9 nM | 857 nM | –
9 | CN(C)CCCC(C(=O)Nc1cc(-c2[nH]c3c(c2Nc2ccccc2)C(=O)N(C)CC3)ccn1)c1ccccc1 (single isomer, unassigned; (-)) [Example 59, (−)-N-[4-(3-anilino-5-methyl-4-oxo-4,5,6,7-tetrahydro-1H-pyrrolo[3,2-c]pyridin-2-yl)pyridin-2-yl]-5-(dimethylamino)-2-phenylpentanamide] | 94.3 nM | 7300 nM | 86.2 nM | 16300 nM | –
10 | CN1CCc2[nH]c(-c3ccnc(NC(=O)C(CC(F)F)c4ccc(F)cc4)c3)c(Nc3ccccc3)c2C1=O (single isomer, unassigned; (-)) [Example 62, (−)-N-[4-(3-anilino-5-methyl-4-oxo-4,5,6,7-tetrahydro-1H-pyrrolo[3,2-c]pyridin-2-yl)pyridin-2-yl]-4,4-difluoro-2-(4-fluorophenyl)butanamide] | 21 nM | 1500 nM | 29.7 nM | > 20000 nM | –
11 | CCC(C(=O)Nc1cc(-c2[nH]c3c(c2Nc2ccccc2)C(=O)N(C)CC3)ccn1)c1ccc(F)cc1 (single isomer, unassigned; (-)) [Example 76, (−)-N-[4-(3-anilino-5-methyl-4-oxo-4,5,6,7-tetrahydro-1H-pyrrolo[3,2-c]pyridin-2-yl)pyridin-2-yl]-2-(4-fluorophenyl)butanamide] | 14.4 nM | 506 nM | 17.5 nM | > 20000 nM | –
12 | CC(C(=O)Nc1cc(-c2[nH]c3c(c2Nc2ccccc2)C(=O)N(C)CC3)ccn1)c1ccc(Cl)cc1 (single isomer, unassigned; (-)) [Example 80, (−)-N-[4-(3-anilino-5-methyl-4-oxo-4,5,6,7-tetrahydro-1H-pyrrolo[3,2-c]pyridin-2-yl)pyridin-2-yl]-2-(4-chlorophenyl)propanamide] | 24.1 nM | 2840 nM | 30.3 nM | > 20000 nM | –
13 | CC1Cc2[nH]c(-c3ccnc(NC(=O)Cc4ccc(F)cc4)c3)c(Nc3ccccc3)c2C(=O)N1C (single isomer, unassigned; (-)) [Example 90, (−)-N-{4-[3-anilino-5,6-dimethyl-4-oxo-4,5,6,7-tetrahydro-1H-pyrrolo[3,2-c]pyridin-2-yl]pyridin-2-yl}-2-(4-fluorophenyl)acetamide] | 1.43 nM | 62.4 nM | 3.79 nM | 561 nM | –
14 | CC(C(=O)Nc1cc(-c2[nH]c3c(c2Nc2ccccc2)C(=O)N(C)C(C)C3)ccn1)c1ccc(F)cc1 (single isomer, unassigned; (-)) [Example 93, (−)-N-{4-[3-anilino-5,6-dimethyl-4-oxo-4,5,6,7-tetrahydro-1H-pyrrolo[3,2-c]pyridin-2-yl]pyridin-2-yl}-2-(4-fluorophenyl)propanamide] | 47.2 nM | 3180 nM | 47.3 nM | > 20000 nM | –
15 | CC(C(=O)Nc1cc(-c2[nH]c3c(c2Nc2ccccc2)C(=O)N(C)C(C)C3)ccn1)c1ccc(F)cc1 (single isomer, unassigned; (-)) [Example 94, (−)-(2RS)—N-{4-[(6R*)-3-anilino-5,6-dimethyl-4-oxo-4,5,6,7-tetrahydro-1H-pyrrolo[3,2-c]pyridin-2-yl]pyridin-2-yl}-2-(4-fluorophenyl)propanamide] | 4.33 nM | 154 nM | 7.02 nM | 4410 nM | –
16 | CC(C(=O)Nc1cc(-c2[nH]c3c(c2Nc2ccccc2)C(=O)N(C)C(C)C3)ccn1)c1ccc(F)cc1 (single isomer, unassigned; (-)) [Example 95, (−)-N-{4-[3-anilino-5,6-dimethyl-4-oxo-4,5,6,7-tetrahydro-1H-pyrrolo[3,2-c]pyridin-2-yl]pyridin-2-yl}-2-(4-fluorophenyl)propanamide] | 46.2 nM | 2460 nM | 45.3 nM | 6310 nM | –
17 | CC1Cc2[nH]c(-c3ccnc(NC(=O)Cc4ccncc4)c3)c(Nc3ccccc3)c2C(=O)N1C (single isomer, unassigned; (-)) [Example 99, (−)-N-{4-[(6S*)-3-anilino-5,6-dimethyl-4-oxo-4,5,6,7-tetrahydro-1H-pyrrolo[3,2-c]pyridin-2-yl]pyridin-2-yl}-2-(pyridin-4-yl)acetamide] | 3.78 nM | 25.9 nM | 5.1 nM | 329 nM | –
18 | CC1Cc2[nH]c(-c3ccnc(NC(=O)Cc4ccc(F)cc4)c3)c(Nc3ccccc3F)c2C(=O)N1C (single isomer, unassigned; (-)) [Example 102, (−)-N-{4-[3-(2-fluoroanilino)-5,6-dimethyl-4-oxo-4,5,6,7-tetrahydro-1H-pyrrolo[3,2-c]pyridin-2-yl]pyridin-2-yl}-2-(4-fluorophenyl)acetamide] | 3.6 nM | 51 nM | 7.21 nM | 2330 nM | –
